Data on 18 compounds can be found in patent publication US20240067651A1 (Biohaven Therapeutics Ltd., priority 2019, published 2024).

Bounds are passed on as bounds.

Series [1] in a line: Caco-2 Permeability Assay. The series is classed as in vitro ADME, human. To be noted: human, Caco-2, pH 7.4, donor 10 μM, 90 minutes, 37° C.; direction not given. The gist of the method: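 Caco-2 monolayers cultured 21 days (TEER >600 […]); test article at 10 μM in HBSS/HEPES pH 7.4 transport medium, dosed apical or basolateral, ±Pgp inhibitor. Incubated 90 min at 37 °C; both compartments quantified by LC-MS/MS. Papp (A→B, B→A), efflux ratio and % recovery calculated.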

A short description of series [2]: Stability in Simulated Gastric Fluid (SGF). In kind it is in vitro ADME. Further details: key: % parent compound remaining relative to 0-minute sample. The gist of the method:
(§1)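 Stability was tested at 37° C in pepsin-supplemented gastric fluid, pH 1.2, and pancreatin-supplemented intestinal fluid, pH 6.8, using 2 μg/mL final compound over 0–60 minutes. Remaining parent was quantified by LC-MS/MS and expressed as a percentage of time zero.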

A further series is described as follows: Plasma Stability. To be noted: % remaining at 1 h; human plasma, 1 μM, 37° C. The series is classed as in vitro ADME, human. A digest of the protocol: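 Compounds incubated at 1 μM in fresh human plasma for 1 hour at 37° C, then protein-precipitated with acetonitrile/formic acid containing internal standard. Remaining parent measured by LC-MS/MS in triplicate, expressed as percent of control remaining.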

Series [3] can be described thus: Stability in Simulated Intestinal Fluid (SIF). In kind it is in vitro ADME. The arrangement: key: % parent compound remaining relative to 0-minute sample. A digest of the protocol: as §1
[4] abbreviates: % remaining at 1 h, SGF with pepsin pH 1.2, 2 μg/mL, 37° C.
[5] abbreviates: % remaining at 1 h, SIF with pancreatin pH 6.8, 2 μg/mL, 37° C.
The mark [6] stands for this setting: bare number, no % and no time given.

In the case of `CC(C)OCCn1c(=S)n(COCC[Si](C)(C)C)c(=O)c2c1ccn2COCC[Si](C)(C)C` [Example 71, 1-[2-(propan-2-yloxy)ethyl]-2-sulfanylidene-3,5-bis({[2-(trimethylsilyl)ethoxy]methyl})-1H,2H,3H,4H,5H-pyrrolo[3,2-d]pyrimidin-4-one], in series [1], the Papp at 90 min, 10 µM amounted to 0.178 ×10⁻⁶ cm/s. The SGF in series [2] (setting [4]) is reported as 98%. For the same compound, the “human Plasma stability” value in “Plasma Stability” is given as 58%. Besides, in series [3] (setting [5]), the SIF is listed as 88%.
The matching figures for `CC(C)OCCn1c(=S)[nH]c(=O)c2c1ccn2COCC[Si](C)(C)C` [Example 72, 1-[2-(propan-2-yloxy)ethyl]-2-sulfanylidene-5-{[2-(trimethylsilyl)ethoxy]methyl}-1H,2H,3H,4H,5H-pyrrolo[3,2-d]pyrimidin-4-one]: 26.4 ×10⁻⁶ cm/s, 97%, 78% and 98%.
The matching figures for `CC(C)OCCn1c(SCOCC[Si](C)(C)C)nc(=O)c2c1ccn2COCC[Si](C)(C)C` [Example 73, 1-[2-(propan-2-yloxy)ethyl]-5-{[2-(trimethylsilyl)ethoxy]-methyl}-2-({[2-(trimethylsilyl)ethoxy]methyl}sulfanyl)-1H,4H,5H-pyrrolo[3,2-d]pyrimidin-4-one]: under 0.717 ×10⁻⁶ cm/s, 35%, 99% and 55%.
The matching figures for `CC(C)OCCn1c(=S)[nH]c(=O)c2c1ccn2COP(=O)(O)O` [Example 83, ({4-oxo-1-[2-(propan-2-yloxy)ethyl]-2-sulfanylidene-1H,2H,3H,4H,5H-pyrrolo[3,2-d]pyrimidin-5-yl}methoxy)phosphonic acid]: under 1.07 ×10⁻⁶ cm/s, 91%, 95% @ and 100%.
In the case of `CC(C)OCCn1c(=S)[nH]c(=O)c2c1ccn2COC(=O)[C@@H]1CCC(=O)N1C(=O)OC(C)(C)C` [Example 85, 1-tert-Butyl 2-{4-oxo-1-[2-(propan-2-yloxy)ethyl]-2-sulfanylidene-1H,2H,3H,4H,5H-pyrrolo[3,2-d]pyrimidin-5-yl}methyl (2S)-5-oxopyrrolidine-1,2-dicarboxylate], the Papp at 90 min, 10 µM in series [1] was determined as 6.54 ×10⁻⁶ cm/s. The SGF in series [2] (setting [4]) is on record as 78%. Also, in “Plasma Stability”, the “human Plasma stability” value amounted to 30%. In series [3] (setting [5]), the SIF is reported as 90%.
The matching figures for `CC(C)OCCn1c(=S)[nH]c(=O)c2c1ccn2COC(=O)[C@@H]1CCC(=O)N1` [Example 86, {4-Oxo-1-[2-(propan-2-yloxy)ethyl]-2-sulfanylidene-1H,2H,3H,4H,5H-pyrrolo[3,2-d]pyrimidin-5-yl}methyl(2S)-5-oxopyrrolidine-2-carboxylate]: 0.24 ×10⁻⁶ cm/s, 98%, 0% and 17%.
The matching figures for `COCCOCCOCC(=O)OCn1ccc2c1c(=O)[nH]c(=S)n2CCOC(C)C` [Example 87]: 7.05 ×10⁻⁶ cm/s, 97%, 0% and 28%.
The corresponding values for `COCCOCCN(C)C(=O)OCSc1nc(=O)c2[nH]ccc2n1CCOC(C)C` [Example 88, ({4-Oxo-1-[2-(propan-2-yloxy)ethyl]-1H,4H,5H-pyrrolo[3,2-d]pyrimidin-2-yl}sulfanyl)methyl N-[2-(2-methoxyethoxy)ethyl]-N-methylcarbamate] are 0.751 ×10⁻⁶ cm/s, 99%, 100% and 64%.
The compound `COCCOCCN(C)C(=O)OCSc1nc(=O)c2c(ccn2COC(=O)N(C)CCOCCOC)n1CCOC(C)C` [Example 89, (2-{[({[2-(2-methoxyethoxy)ethyl](methyl)carbamoyl}oxy)methyl]sulfanyl}-4-oxo-1-[2-(propan-2-yloxy)ethyl]-1H,4H,5H-pyrrolo[3,2-d]pyrimidin-5-yl)methyl N-[2-(2-methoxyethoxy)ethyl]-N-methylcarbamate] displayed a Papp at 90 min, 10 µM in series [1] of 0.488 ×10⁻⁶ cm/s. Besides, in series [2] (setting [4]), the SGF is on record as 99%. The “human Plasma stability” value in the series “Plasma Stability” is listed as 100%. The SIF in series [3] (setting [5]) is listed as 65%.
The matching figures for `CC(C)OCCn1c(=S)[nH]c(=O)c2c1ccn2COC(=O)OC(C)C` [Example 90, {4-oxo-1-[2-(propan-2-yloxy)ethyl]-2-sulfanylidene-1H,2H,3H,4H,5H-pyrrolo[3,2-d]pyrimidin-5-yl}methyl propan-2-yl carbonate]: 18 ×10⁻⁶ cm/s, 77% remaining, 0% remaining and 56% remaining.
The matching figures for `CC(C)OCCn1c(SCOC(=O)OC(C)C)nc(=O)c2c1ccn2COC(=O)OC(C)C` [Example 91, {4-oxo-2-[{{[(propan-2-yloxy)carbonyl]oxy}methyl)sulfanyl]-1-[2-(propan-2-yloxy)ethyl]-1H,4H,5H-pyrrolo[3,2-d]pyrimidin-5-yl}methyl propan-2-yl carbonate]: 14.2 ×10⁻⁶ cm/s, 98% remaining, 1% remaining and 99% remaining.
In series [1], `COCCOCCC(=O)OCn1ccc2c1c(=O)[nH]c(=S)n2CCOC(C)C` [Example 93, {4-oxo-1-[2-(propan-2-yloxy)ethyl]-2-sulfanylidene-1H,2H,3H,4H,5H-pyrrolo[3,2-d]pyrimidin-5-yl}methyl 3-(2-methoxyethoxy)propanoate] yielded a Papp at 90 min, 10 µM of 16.8 ×10⁻⁶ cm/s. Besides, in series [2] (setting [6]), the SGF is given as 99. Moreover, the “human Plasma stability” value in the series “Plasma Stability” is 0% remaining. The SIF in series [3] (setting [6]) is recorded as 38.
The matching figures for `CC(C)OCCn1c(SCOC(=O)N(C)CC(F)(F)F)nc(=O)c2[nH]ccc21` [Example 94, ({4-oxo-1-[2-(propan-2-yloxy)ethyl]-1H,4H,5H-pyrrolo[3,2-d]pyrimidin-2-yl}sulfanyl)methyl N-methyl-N-(2,2,2-trifluoroethyl)carbamate]: 15.1 ×10⁻⁶ cm/s, 99, 99% remaining and 95.
As for `CC(C)OCCn1c(SCOC(=O)N(C)CC(F)(F)F)nc(=O)c2c1ccn2COC(=O)N(C)CC(F)(F)F` [Example 95, {2-[{{[methyl(2,2,2-trifluoroethyl)carbamoyl]oxy}methyl)sulfanyl]-4-oxo-1-[2-(propan-2-yloxy)ethyl]-1H, 4H,5H-pyrrolo[3,2-d]pyrimidin-5-yl}methyl N-methyl-N-(2,2,2-trifluoroethyl)carbamate], in series [1], the Papp at 90 min, 10 µM worked out at 18.8 ×10⁻⁶ cm/s. Further, in series [2] (setting [6]), the SGF was 100. The “human Plasma stability” value in “Plasma Stability” was 99% remaining. Also, the SIF in series [3] (setting [6]) is recorded as 95.
`CC(C)OCCn1c(SCOC(=O)N(CC(F)(F)F)CC(F)(F)F)nc(=O)c2[nH]ccc21` [Example 96, ({4-oxo-1-[2-(propan-2-yloxy)ethyl]-1H,4H,5H-pyrrolo[3,2-d]pyrimidin-2-yl}sulfanyl)methyl N,N-bis(2,2,2-trifluoroethyl)carbamate]: the Papp at 90 min, 10 µM in series [1] turned out to be 20.3 ×10⁻⁶ cm/s. For the same compound, in series [2] (setting [6]), the SGF is 98. Moreover, the “human Plasma stability” value in the series “Plasma Stability” turned out to be 98% remaining. In addition, the SIF in series [3] (setting [6]) is 97.
The matching figures for `CC(C)OCCn1c(SCOC(=O)N(CC(F)(F)F)CC(F)(F)F)nc(=O)c2c1ccn2COC(=O)N(CC(F)(F)F)CC(F)(F)F` [Example 97, {2-[{{[bis(2,2,2-trifluoroethyl)carbamoyl]oxy}methyl)sulfanyl]-4-oxo-1-[2-(propan-2-yloxy)ethyl]-1H,4H,5H-pyrrolo[3,2-d]pyrimidin-5-yl}methyl N,N-bis(2,2,2-trifluoroethyl)carbamate]: 30.8 ×10⁻⁶ cm/s, 98, 99% remaining and 96.
The corresponding values for `CC(C)OCCn1c(=S)n(COC(=O)N(CC(F)(F)F)CC(F)(F)F)c(=O)c2c1ccn2COC(=O)N(CC(F)(F)F)CC(F)(F)F` [Example 98, [3-({[bis(2,2,2-trifluoroethyl)carbamoyl]oxy}methyl)-4-oxo-1-[2-(propan-2-yloxy)ethyl]-2-sulfanylidene-1H, 2H,3H,4H,5H-pyrrolo[3,2-d]pyrimidin-5-yl]methyl N,N-bis(2,2,2-trifluoroethyl)carbamate] are 6.53 ×10⁻⁶ cm/s, 95, 99% remaining and 80.
In series [1], `CC(C)OCCn1c(=S)[nH]c(=O)c2c1ccn2C(C)OC(=O)OC1CCN(C(=O)OC(C)(C)C)CC1` (stereo not drawn) [Example 99, tert-Butyl 4-{[(1-{4-oxo-1-[2-(propan-2-yloxy)ethyl]-2-sulfanylidene-1H,2H,3H,4H,5H-pyrrolo[3,2-d]pyrimidin-5-yl}ethoxy)carbonyl]oxy}piperidine-1-carboxylate] came in with an apparent permeability coefficient (Papp) at 90 min, 10 µM of 0.111 ×10⁻⁶ cm/s. For the same compound, the SGF in series [2] (setting [4]) is 0%. For the same compound, the “human Plasma stability” value in the series “Plasma Stability” is 5%. Further, the SIF in series [3] (setting [5]) is 0%.
